Experimental data: ChEMBL document CHEMBL1130438, “The Gif system as a tool in medicinal chemistry: The oxidation of Sch 57726 under GoAggIII conditions” (Bioorg Med Chem Lett, 1997)

Columns and labels:
Phosphodiesterase 1 = Phosphodiesterase 1 (Bos taurus, UniProt Q01061+P14100); test: Inhibition of bovine aorta phosphodiesterase 1; format: protein assay
[1] = molecular target: cGMP-dependent 3',5'-cyclic phosphodiesterase (Homo sapiens, UniProt O00408); test: Inhibition of phosphodiesterase 2
Sequence of cGMP-dependent 3',5'-cyclic phosphodiesterase (O00408 whole entry): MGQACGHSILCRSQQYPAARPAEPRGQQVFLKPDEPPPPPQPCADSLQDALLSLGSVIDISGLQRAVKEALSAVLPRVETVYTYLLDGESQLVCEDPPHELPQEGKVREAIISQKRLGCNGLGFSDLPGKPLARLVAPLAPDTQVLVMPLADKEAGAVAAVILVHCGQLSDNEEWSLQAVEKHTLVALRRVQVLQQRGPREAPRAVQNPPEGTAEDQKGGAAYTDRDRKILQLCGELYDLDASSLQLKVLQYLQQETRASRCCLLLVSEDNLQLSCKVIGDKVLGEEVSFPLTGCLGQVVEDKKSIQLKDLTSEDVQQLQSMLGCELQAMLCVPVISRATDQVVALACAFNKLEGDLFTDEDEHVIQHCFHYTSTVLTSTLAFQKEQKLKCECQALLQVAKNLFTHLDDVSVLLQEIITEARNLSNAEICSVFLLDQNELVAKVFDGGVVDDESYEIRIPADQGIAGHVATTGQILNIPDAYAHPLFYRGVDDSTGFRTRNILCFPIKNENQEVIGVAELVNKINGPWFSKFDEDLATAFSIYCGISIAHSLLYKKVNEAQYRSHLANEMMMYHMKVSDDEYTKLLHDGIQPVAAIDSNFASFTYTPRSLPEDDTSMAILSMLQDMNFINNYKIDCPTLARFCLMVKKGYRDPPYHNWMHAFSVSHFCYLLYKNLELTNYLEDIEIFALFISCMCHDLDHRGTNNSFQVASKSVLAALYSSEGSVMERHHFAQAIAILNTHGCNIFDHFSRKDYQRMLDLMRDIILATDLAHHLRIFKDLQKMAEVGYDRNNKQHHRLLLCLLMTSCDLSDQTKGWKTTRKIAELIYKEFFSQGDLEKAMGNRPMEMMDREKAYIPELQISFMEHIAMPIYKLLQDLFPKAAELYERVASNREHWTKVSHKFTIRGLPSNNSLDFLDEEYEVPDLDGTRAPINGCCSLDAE

Phosphodiesterase 3B = Phosphodiesterase 3B (Bos taurus, UniProt E1BN64); test: Inhibition of bovine heart phosphodiesterase 3
Sequence of Phosphodiesterase 3B (E1BN64 whole entry): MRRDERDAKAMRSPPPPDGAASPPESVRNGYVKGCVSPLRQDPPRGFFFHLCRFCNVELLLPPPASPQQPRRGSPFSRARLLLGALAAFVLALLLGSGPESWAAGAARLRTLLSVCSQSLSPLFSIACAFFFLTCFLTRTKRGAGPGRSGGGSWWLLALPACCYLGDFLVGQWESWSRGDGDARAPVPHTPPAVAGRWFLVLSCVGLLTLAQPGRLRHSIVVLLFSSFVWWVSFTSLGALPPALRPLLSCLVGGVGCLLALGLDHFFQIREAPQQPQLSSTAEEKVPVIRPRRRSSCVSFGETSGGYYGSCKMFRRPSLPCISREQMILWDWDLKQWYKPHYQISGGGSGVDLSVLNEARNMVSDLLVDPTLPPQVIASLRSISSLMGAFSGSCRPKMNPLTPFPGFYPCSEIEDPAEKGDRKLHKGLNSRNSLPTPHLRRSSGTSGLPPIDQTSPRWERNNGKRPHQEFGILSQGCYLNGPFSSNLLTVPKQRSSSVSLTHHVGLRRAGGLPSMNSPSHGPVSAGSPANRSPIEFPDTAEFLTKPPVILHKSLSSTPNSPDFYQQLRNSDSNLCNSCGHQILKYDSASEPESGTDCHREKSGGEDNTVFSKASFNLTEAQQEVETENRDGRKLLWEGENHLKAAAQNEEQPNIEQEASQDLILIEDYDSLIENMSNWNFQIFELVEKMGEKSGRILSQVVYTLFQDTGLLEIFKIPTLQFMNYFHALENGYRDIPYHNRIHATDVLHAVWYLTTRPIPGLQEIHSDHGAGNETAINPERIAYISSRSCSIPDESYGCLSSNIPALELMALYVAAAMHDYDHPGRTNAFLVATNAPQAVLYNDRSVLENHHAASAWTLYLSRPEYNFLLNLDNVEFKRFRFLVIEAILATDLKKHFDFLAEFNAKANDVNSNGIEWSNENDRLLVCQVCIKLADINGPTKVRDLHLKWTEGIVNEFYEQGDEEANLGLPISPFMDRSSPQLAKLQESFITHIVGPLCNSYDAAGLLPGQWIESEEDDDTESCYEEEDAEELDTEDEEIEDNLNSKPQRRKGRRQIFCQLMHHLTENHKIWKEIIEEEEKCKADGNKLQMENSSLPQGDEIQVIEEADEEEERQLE

Phosphodiesterase 4 = Phosphodiesterase 4 (Homo sapiens, UniProt P27815+Q08499+Q07343+Q08493); test: Inhibition of phosphodiesterase 4; format: protein assay
[2] = molecular target: cGMP-specific 3',5'-cyclic phosphodiesterase (Bos taurus, UniProt Q28156); test: Inhibition of bovine lung phosphodiesterase 5

CN1C(=O)c2c(nc(-c3ccc(C4CCCCC4)cc3)n2Cc2ccccc2)N2CC3(CCCC3)N=C12
IC50 (Phosphodiesterase 1): 0.11 µM | IC50 [1]: 17 µM | IC50 (Phosphodiesterase 3B): > 100 µM | IC50 (Phosphodiesterase 4): 2.2 µM | IC50 [2]: 0.19 µM
